Measurements: ChEMBL document CHEMBL4261640, “Potent Antiglioblastoma Agents by Hybridizing the Onium-Alkyloxy-Stilbene Based Structures of an α7-nAChR, α9-nAChR Antagonist and of a Pro-Oxidant Mitocan” (J Med Chem, 2018)
The source made the active and inactive calls. No cut-off for these calls is given here.

Key:
U-87 MG [1] = assay: cells; details: Homo sapiens, 72 h
Description: Antiproliferative activity against human U87MG cells after 72 hrs by MTS assay

A549 = assay: cells; details: Homo sapiens, A549, 72 h
Description: Antiproliferative activity against human A549 cells after 72 hrs by MTS assay

U-87 MG [2] = assay: Reduction in mitochondrial membrane potential in human U87MG cells after 72 hr by TMRM-staining based assay; details: U-87MG ATCC
[3] = molecular target: Neuronal acetylcholine receptor; alpha9/alpha10 (Homo sapiens, UniProt Q9GZZ6+Q9UGM1); assay: Antagonist activity at human alpha9alpha10 nACHR expressed in xenopous laevis oocyte assessed as inhibition of ACh-induced channel current after 5 mins at -70 mV holding potential by two electrode voltage clamp method
U-87 MG [4] = assay: Reduction in mitochondrial membrane potential in human U87MG cells after 72 hrs by TMRM-staining based assay; type: functional, cell-based; details: U-87MG ATCC
Astrocyte = assay: Cytotoxicity against mouse astrocytes assessed as reduction in cell viability after 72 hrs by MTS assay
U-87 MG [5] = assay: Induction of ROS production in human U87MG cells after 1 hr by MitoSOX Red mitochondrial superoxide indicator based FACS analysis; type: functional, cell-based; details: U-87MG ATCC
SH-SY5Y = assay: Antiproliferative activity against human SH-SY5Y cells after 72 hrs by MTS assay
U-87 MG [6] = assay: Cytotoxicity against human U87MG cells assessed as decrease in ATP production at 4 uM after 72 hrs by luciferin-luciferase-based luminescent assay; type: functional, cell-based; details: U-87MG ATCC
[7] = molecular target: T1, Neuronal acetylcholine receptor subunit alpha-7 (Homo sapiens, UniProt P36544); assay: Antagonist activity at human alpha7 nACHR expressed in xenopous laevis oocyte assessed as inhibition of ACh-induced channel current after 5 mins at -70 mV holding potential by two electrode voltage clamp method
[8] = molecular target: T1, Neuronal acetylcholine receptor subunit alpha-7; assay: Displacement of [125I]-alpha-bungarotoxin from human alpha7 nAChR expressed in human SH-SY5Y cell membranes after 30 mins by gamma counting analysis
[9] = Drug uptake in human HepG2 cells assessed as relative fluorescence unit at 1 uM after 1 hr to 24 hrs by fluorescent plate reader based assay; type: ADME, cell-based; details: hepg2, 1 µM
U-87 MG [10] = assay: Induction of ROS production in human U87MG cells at 500 nM after 1 hr by MitoSOX Red mitochondrial superoxide indicator based FACS analysis relative to antimycin A; type: functional, U-87MG ATCC
U-87 MG [11] = assay: Cytotoxicity against human U87MG cells assessed as decrease in ATP production at 0.1 uM after 1 hr by luciferin-luciferase-based luminescent assay; type: functional, cell-based; details: U-87MG ATCC
U-87 MG [12] = assay: Cytotoxicity against human U87MG cells assessed as decrease in ATP production at 0.1 uM after 72 hrs by luciferin-luciferase-based luminescent assay; type: functional, cell-based; details: U-87MG ATCC
U-87 MG [13] = assay: Cytotoxicity against human U87MG cells assessed as decrease in ATP production at 1 uM after 1 hr by luciferin-luciferase-based luminescent assay; type: functional, cell-based; details: U-87MG ATCC
U-87 MG [14] = assay: Cytotoxicity against human U87MG cells assessed as decrease in ATP production at 1 uM after 72 hrs by luciferin-luciferase-based luminescent assay; type: functional, cell-based; details: U-87MG ATCC
[15] = Drug uptake in human HepG2 cells assessed as relative fluorescence unit at 100 uM after 24 hrs by fluorescent plate reader based assay; type: ADME, cell-based; details: hepg2, 24 h
[16] = Drug uptake in human HepG2 cells assessed as relative fluorescence unit at 1 uM after 6 hrs by fluorescent plate reader based assay; type: ADME, cell-based; details: hepg2, 6 h
[17] = Drug metabolism in human HepG2 cells assessed as loss of styrene moiety at 100 uM incubated for 24 hrs by MS/MS analysis; type: ADME, cell-based; details: hepg2, 24 h
[18] = Drug uptake in human HepG2 cells assessed as relative fluorescence unit at 50 uM after 24 hrs by fluorescent plate reader based assay; type: ADME, cell-based; details: hepg2, 24 h
[19] = Drug uptake in human HepG2 cells assessed as relative fluorescence unit at 50 uM after 6 hrs by fluorescent plate reader based assay; type: ADME, cell-based; details: hepg2, 6 h
[20] = Drug uptake in human HepG2 cells by fluorescent plate reader based assay; type: ADME, cell-based
[21] = Drug uptake in human HepG2 cells assessed as relative fluorescence unit at 100 uM after 6 hrs by fluorescent plate reader based assay; type: ADME, cell-based; details: hepg2, 6 h
[22] = Drug uptake in human HepG2 cells assessed as relative fluorescence unit at 1 uM after 24 hrs by fluorescent plate reader based assay; type: ADME, cell-based; details: hepg2, 24 h
[23] = Drug uptake in human HepG2 cells assessed as relative fluorescence unit at 10 uM after 6 hrs by fluorescent plate reader based assay; type: ADME, cell-based; details: hepg2, 6 h
[24] = Drug uptake in human HepG2 cells assessed as relative fluorescence unit at 10 uM after 24 hrs by fluorescent plate reader based assay; type: ADME, cell-based; details: hepg2, 24 h
U-87 MG [25] = assay: Cytotoxicity against human U87MG cells assessed as decrease in ATP production at 2 uM after 72 hrs by luciferin-luciferase-based luminescent assay; type: functional, cell-based; details: U-87MG ATCC
U-87 MG [26] = assay: Cytotoxicity against human U87MG cells assessed as decrease in ATP production at 2 uM after 1 hr by luciferin-luciferase-based luminescent assay; type: functional, cell-based; details: U-87MG ATCC

T1 sequence (P36544 whole entry): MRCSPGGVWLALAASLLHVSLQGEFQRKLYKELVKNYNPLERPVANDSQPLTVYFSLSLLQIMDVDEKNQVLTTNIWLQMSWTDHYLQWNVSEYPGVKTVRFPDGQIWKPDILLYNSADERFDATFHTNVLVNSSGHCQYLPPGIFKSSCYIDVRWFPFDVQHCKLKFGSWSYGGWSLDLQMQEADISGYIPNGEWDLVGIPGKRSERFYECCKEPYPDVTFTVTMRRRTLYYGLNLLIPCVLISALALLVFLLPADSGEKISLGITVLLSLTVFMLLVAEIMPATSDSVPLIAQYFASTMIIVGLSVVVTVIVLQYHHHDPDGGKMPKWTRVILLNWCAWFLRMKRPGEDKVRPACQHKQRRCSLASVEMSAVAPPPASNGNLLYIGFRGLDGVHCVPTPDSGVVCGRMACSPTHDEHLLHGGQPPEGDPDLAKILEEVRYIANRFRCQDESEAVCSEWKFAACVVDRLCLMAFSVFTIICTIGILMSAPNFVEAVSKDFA
Neuronal acetylcholine receptor; alpha9/alpha10, sequence (Q9UGM1 whole entry): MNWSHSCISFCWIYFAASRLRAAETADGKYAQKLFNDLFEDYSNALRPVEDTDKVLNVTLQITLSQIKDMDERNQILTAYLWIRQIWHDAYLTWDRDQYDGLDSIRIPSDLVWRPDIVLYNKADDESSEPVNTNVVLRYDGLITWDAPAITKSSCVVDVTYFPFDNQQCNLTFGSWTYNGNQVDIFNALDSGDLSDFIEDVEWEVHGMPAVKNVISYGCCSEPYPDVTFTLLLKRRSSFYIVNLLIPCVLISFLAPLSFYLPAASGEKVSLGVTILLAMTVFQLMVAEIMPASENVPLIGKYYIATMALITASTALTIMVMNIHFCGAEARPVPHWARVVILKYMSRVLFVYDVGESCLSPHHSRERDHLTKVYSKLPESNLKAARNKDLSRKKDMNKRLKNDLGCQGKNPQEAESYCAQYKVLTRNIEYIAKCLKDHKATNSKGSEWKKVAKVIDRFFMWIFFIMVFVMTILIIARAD
Neuronal acetylcholine receptor; alpha9/alpha10, sequence (Q9GZZ6 whole entry): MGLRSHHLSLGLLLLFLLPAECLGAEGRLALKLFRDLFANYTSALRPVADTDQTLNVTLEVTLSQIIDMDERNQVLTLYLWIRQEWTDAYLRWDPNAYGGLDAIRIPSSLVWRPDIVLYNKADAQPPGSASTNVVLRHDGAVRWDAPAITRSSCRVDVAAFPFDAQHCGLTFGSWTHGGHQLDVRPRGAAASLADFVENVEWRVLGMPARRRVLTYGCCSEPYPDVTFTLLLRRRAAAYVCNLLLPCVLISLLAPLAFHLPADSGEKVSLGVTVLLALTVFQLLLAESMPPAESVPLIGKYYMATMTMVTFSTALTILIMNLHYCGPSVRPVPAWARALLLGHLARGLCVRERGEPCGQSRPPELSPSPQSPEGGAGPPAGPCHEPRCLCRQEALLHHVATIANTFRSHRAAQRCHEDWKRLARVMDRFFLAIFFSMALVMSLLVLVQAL

SMILES | IC50 (U-87 MG [1]) [nM] | IC50 (A549) [nM] | Activity (U-87 MG [2]) | Activity (U-87 MG [4]) | IC50 [7] [nM] | Ki [8] [nM] | Activity (U-87 MG [10]) [%] | other results
CC[N+](CC)(CC)CCOc1ccc(/C=C/c2cc(OC)cc(OC)c2)cc1 | 5300 | 12000 | Active | Active |  |  |  | IC50 [3]: 17.2 nM; IC50 (Astrocyte): 23000 nM; Activity (U-87 MG [5]): inactive; IC50 (SH-SY5Y): > 100000 nM; Activity (U-87 MG [6]): Active
CC[N+](CC)(CC)CCCCCCOc1ccc(/C=C/c2ccccc2)cc1 |  |  |  |  | 12.3 | 465 |  | 
CC[N+](CC)(CC)CCCCCCCCOc1ccc(/C=C/c2ccccc2)cc1.[I-] |  |  |  |  | 92 | 164 |  | Drug uptake [9]: Active
C(=C\c1ccc(OCCCCCCCCCC[P+](c2ccccc2)(c2ccccc2)c2ccccc2)cc1)/c1ccccc1.[I-] | 60 | 100 | Active | Active |  | 1930 | 58.2 | Activity (U-87 MG [11]): Active; IC50 (Astrocyte): 600 nM; Activity (U-87 MG [5]): Dose-dependent effect; IC50 (SH-SY5Y): 210 nM; Activity (U-87 MG [12]): Active
C(=C\c1ccc(OCCCCCCCC[P+](c2ccccc2)(c2ccccc2)c2ccccc2)cc1)/c1ccccc1.[I-] | 70 | 260 |  |  |  | 909 | 46.3 | Drug uptake [9]: Active
COc1cc(/C=C/c2ccc(OCCCC[P+](c3ccccc3)(c3ccccc3)c3ccccc3)cc2)cc(OC)c1.[I-] | 860 | 260 | Active | Active | > 10000 | 1830 | 16.3 | IC50 [3]: > 10000 nM; Activity (U-87 MG [13]): Active; IC50 (Astrocyte): 1000 nM; Activity (U-87 MG [5]): Dose-dependent effect; IC50 (SH-SY5Y): 550 nM; Activity (U-87 MG [14]): Active
CC[N+](CC)(CC)CCCCOc1ccc(/C=C/c2ccccc2)cc1.[I-] |  |  |  |  | 6.5 | 186 |  | Drug uptake [9]: Active
C(=C\c1ccc(OCCCCCCC[P+](c2ccccc2)(c2ccccc2)c2ccccc2)cc1)/c1ccccc1.[I-] | 360 | 120 |  |  |  | 617 | 39.5 | 
CC[N+](CC)(CC)CCCCOc1ccc(/C=C/c2cc(OC)cc(OC)c2)cc1 |  |  |  |  | 24.3 | 305 |  | 
C(=C\c1ccc(OCCC[P+](c2ccccc2)(c2ccccc2)c2ccccc2)cc1)/c1ccccc1.[I-] | 1400 | 1800 |  |  |  | 984 | 21 | 
CC[N+](CC)(CC)CCOc1ccc(/C=C/c2ccccc2)cc1.[I-] [STILONIUM IODIDE] |  |  | Active | Active |  |  |  | Drug uptake [15]: 14.35 RFU; Drug uptake [16]: 4.75 RFU; Drug metabolism [17]: Metabolite_Detected; Drug uptake [18]: 9.13 RFU; Drug uptake [19]: 7.67 RFU; Drug uptake [20]: Dose-dependent effect and Tde; Drug uptake [21]: 9.43 RFU; Drug uptake [22]: 5.42 RFU; Drug uptake [23]: 6.82 RFU; Activity (U-87 MG [6]): Active; Drug uptake [24]: 7.18 RFU
C(=C\c1ccc(OCCCCCCCCC[P+](c2ccccc2)(c2ccccc2)c2ccccc2)cc1)/c1ccccc1.[I-] | 90 | 110 |  |  |  | 1290 | 56.3 | 
C(=C\c1ccc(OCCCC[P+](c2ccccc2)(c2ccccc2)c2ccccc2)cc1)/c1ccccc1.[I-] | 640 | 420 | Active | Active |  | 1640 | 1.5 | Activity (U-87 MG [25]): Active; Activity (U-87 MG [26]): Active; IC50 (Astrocyte): 400 nM; Activity (U-87 MG [5]): Dose-dependent effect; IC50 (SH-SY5Y): 3000 nM
C(=C\c1ccc(OCCCCCC[P+](c2ccccc2)(c2ccccc2)c2ccccc2)cc1)/c1ccccc1.[I-] | 380 | 150 |  |  |  | 559 | 27.3 | 
C(=C\c1ccc(OCCCCC[P+](c2ccccc2)(c2ccccc2)c2ccccc2)cc1)/c1ccccc1.[I-] | 670 | 320 |  |  |  | 2800 | 20 | 
